The subject of data set [1] is HT-29. Briefly: Cytotoxicity against human HT-29 cells assessed as growth inhibition after 72 hrs by MTT assay. It is filed as functional, cell-based. The conditions noted are these: HT-29, 72 h.
Data set [2] concerns MCF7. Briefly: Cytotoxicity against human MCF7 cells assessed as growth inhibition after 72 hrs by MTT assay. It is filed as functional, cell-based. The conditions noted are these: MCF7, 72 h. On the technique in general: Tetrazolium dyes change colour on reduction, which living cells bring about.
For data set [3], the system named is HepG2. Briefly: Cytotoxicity against human HepG2 cells assessed as growth inhibition after 72 hrs by MTT assay. It is filed as functional, cell-based. The conditions noted are these: HepG2, 72 h.
Data set [4] has as its system BXPC-3. The experiment in a line: Cytotoxicity against human BxPC3 cells assessed as growth inhibition after 72 hrs by MTT assay. It is filed as functional, cell-based. The conditions noted are these: BXPC-3, 72 h.
The subject of data set [5] is A549. Briefly: Cytotoxicity against human A549 cells assessed as growth inhibition after 72 hrs by MTT assay. Type of data set: functional, cell-based. The following applies: A549, 72 h.
For data set [6], the system named is KB. The experiment in a line: Cytotoxicity against vincristine-resistant human KB cells assessed as growth inhibition after 72 hrs by MTT assay. Type of data set: functional, cell-based.
In data set [7] the test system is KB. Briefly: Cytotoxicity against human KB cells assessed as growth inhibition after 72 hrs by MTT assay. Type of data set: functional, cell-based.
Data set [8] relates to MX1. The experiment in a line: Cytotoxicity against taxol-resistant human MX1 cells assessed as growth inhibition after 72 hrs by MTT assay. It is filed as functional, cell-based. The conditions noted are these: MX1, 72 h.
The subject of data set [9] is MX1. The experiment in a line: Cytotoxicity against human MX1 cells assessed as growth inhibition after 72 hrs by MTT assay. Type of data set: functional, cell-based. The conditions noted are these: MX1, 72 h.
For data set [10], the system named is Mus musculus. Briefly: Toxicity in KM mouse allografted with mouse H22 cells assessed as body weight at 0.5 mg/kg, ip administered on day 1 and 4 measured on day 8 (reference value: 30 +/- 3.24 g). Type of data set: organism-based. The following applies: in vivo. Details: dose 0.5 mg/kg, route intraperitoneal.
Data set [11] concerns H22. Briefly: Antitumor activity against mouse H22 cells allografted in KM mouse assessed as tumor growth inhibition at 0.25 mg/kg, ip administered on day 1 and 4 measured on day 8 relative to control. The following applies: route intraperitoneal, read-out: TGI. It is filed as functional.
For data set [12], the system named is Mus musculus. The experiment in a line: Toxicity in KM mouse allografted with mouse H22 cells assessed as body weight at 0.25 mg/kg, ip administered on day 1 and 4 measured on day 8 (reference value: 30 +/- 3.24 g). The following applies: in vivo. Details: dose 0.25 mg/kg, route intraperitoneal. Type of data set: organism-based.
Data set [13] concerns H22. Briefly: Antitumor activity against mouse H22 cells allografted in KM mouse assessed as tumor growth inhibition at 0.5 mg/kg, ip administered on day 1 and 4 measured on day 8 relative to control. Type of data set: functional. The following applies: route intraperitoneal, read-out: TGI.

Some results are limits rather than exact numbers.

The IC50 is the concentration needed to halve the response being measured. As for `COc1cc(-c2ncoc2-c2ccc(OC)c3ncn(C)c23)cc(OC)c1OC`, the IC50 in data set [1] is 52 nM; in data set [2], 41 nM; in data set [3] it was 200 nM; in data set [4] it was 220 nM; in [5] it was 37 nM.

On to `COC(=O)n1cnc2c(-c3ocnc3-c3cc(OC)c(OC)c(OC)c3)ccc(OC)c21`, for which the IC50 came out at 11 nM in data set [1]; 53 nM in data set [6]; 47 nM in data set [2]; 107 nM in [7]; 4860 nM in data set [8]; 241 nM in data set [9]. Also, the results for the concentration for half-maximal inhibition (IC50) in data set [3], in data set [4] and in data set [5] were 25 nM, 45 nM and 3 nM, respectively.

As for `COc1cc(-c2ncoc2-c2ccc(OC)c3ncn(CCO)c23)cc(OC)c1OC`, the results for the IC50 in [1], in [2] and in data set [3] were 180 nM, 540 nM and 130 nM, respectively.

Turning to `COc1cc(-c2ncoc2-c2ccc(OC)c3ncn(CCCO)c23)cc(OC)c1OC`, the IC50 in [1] is 290 nM; in data set [6], greater than 10000 nM; in data set [2] it was 500 nM; in data set [7] it was 346 nM; in data set [8] it was greater than 10000 nM; in data set [9], 3780 nM. Besides, the IC50 in [3] was determined as 310 nM.

On to `COC(=O)n1cnc2c(OC)ccc(-c3ocnc3-c3cc(OC)c(OC)c(OC)c3)c21`, for which the IC50 in [1] is 11 nM; in data set [6] it was 70 nM; in data set [2], 17 nM; in [7], 27 nM; in data set [8], 565 nM; in [9], 393 nM. The IC50 is 20 nM in data set [3], 42 nM in data set [4] and 3.8 nM in [5].

As for `COc1cc(-c2ncoc2-c2ccc(OC)c3ncn(CC#N)c23)cc(OC)c1OC`, the IC50 in [1] was 1600 nM; in data set [2] it was 2050 nM; in data set [3], 870 nM; in data set [4] it was 1390 nM; in data set [5], greater than 5000 nM.

In the case of `CCOC(=O)Cn1cnc2c(OC)ccc(-c3ocnc3-c3cc(OC)c(OC)c(OC)c3)c21`, the IC50 in data set [1] was 350 nM; in data set [2], 419 nM; in data set [3], 500 nM; in data set [4], greater than 500 nM; in data set [5] it was 23.4 nM.

Consider `COc1cc(-c2ncoc2-c2ccc(OC)c3c2ncn3CCCO)cc(OC)c1OC`, for which the IC50 is 2220 nM in data set [1]; greater than 10000 nM in data set [6]; 2110 nM in data set [2]; 406 nM in data set [7]; 21100 nM in data set [8]; greater than 10000 nM in [9]. In data set [3], the IC50 came to 410 nM.

In the case of `CCOC(=O)Cn1cnc2c(-c3ocnc3-c3cc(OC)c(OC)c(OC)c3)ccc(OC)c21`, the IC50 in data set [1], in [2], in data set [3], in [4] and in [5] was greater than 500 nM in each case.

As for `CC[C@]1(O)C[C@H]2CN(CCc3c([nH]c4ccccc34)[C@@](C(=O)OC)(c3cc4c(cc3OC)N(C=O)[C@H]3[C@@](O)(C(=O)OC)[C@H](OC(C)=O)[C@]5(CC)C=CCN6CC[C@]43[C@@H]65)C2)C1` [VINCRISTINE], the Activity was determined as 25.5 g in data set [10] and 24.6 g in data set [12]. The IC50 in [1] was 12 nM; in data set [6], greater than 100000 nM; in data set [2], 13 nM; in [7] it was 139 nM; in data set [8], 75 nM; in data set [9], 12 nM. The IC50 in data set [3] was 210 nM; in data set [4], greater than 500 nM; in data set [5] it was 53 nM. For the same molecule, the inhibition in vivo at 0.25 mg/kg in data set [11] turned out to be 31%. Further, in [13], the inhibition in vivo at 0.5 mg/kg amounted to 61%.

Regarding `COc1cc(-c2ncoc2-c2ccc(OC)c3c2ncn3CC(N)=O)cc(OC)c1OC`, the values for the half-inhibitory concentration (IC50) in data set [1], in data set [2] and in data set [3] were greater than 10000 nM, greater than 10000 nM and 990 nM, respectively.

`COc1cc(-c2ncoc2-c2ccc(OC)c3c2ncn3C)cc(OC)c1OC`: the IC50 in [1] amounted to 14 nM; in data set [6] it was 27 nM; in data set [2] it was 39 nM; in [7] it was 41 nM; in data set [8], 12800 nM; in data set [9] it was 334 nM. Also, the IC50 was 29 nM in data set [3], 56 nM in [4] and 9.6 nM in [5].

As to `COc1cc(-c2ncoc2-c2ccc(OC)c3ncn(CC(N)=O)c23)cc(OC)c1OC`, the IC50 is 1600 nM in [1]; 2050 nM in [2]; 870 nM in [3]; 1390 nM in data set [4]; greater than 5000 nM in data set [5].

`COc1cc(-c2ncoc2-c2ccc(OC)c3c2ncn3CC(=O)O)cc(OC)c1OC`: the IC50 in [1], in [2], in data set [3], in data set [4] and in data set [5] was greater than 5000 nM in each case.

`COC(=O)c1sccc1S(=O)(=O)n1cnc2c(-c3ocnc3-c3cc(OC)c(OC)c(OC)c3)ccc(OC)c21`: the IC50 in data set [1] is 163 nM; in data set [2], 435 nM; in [3], 134 nM; in [4] it was 941 nM; in data set [5], 2510 nM.

`COc1cc(-c2ncoc2-c2ccc(OC)c3ncn(CC(=O)O)c23)cc(OC)c1OC`: the IC50 in data set [1], in data set [2], in [3], in [4] and in data set [5] was greater than 5000 nM each time.

`COc1ccc(/C=C\c2cc(OC)c(OC)c(OC)c2)cc1O` [COMBRETASTATIN A4]: the IC50 in [6] is 6 nM; in data set [2], 220 nM; in data set [7] it was 8 nM; in data set [8], 71 nM; in data set [9], 52 nM; in [4] it was less than 50 nM.

Turning to `COc1cc(-c2ncoc2-c2ccc(OC)c3c2ncn3CCO)cc(OC)c1OC`, the IC50 in data set [1] worked out at 170 nM; in data set [2], 510 nM; in data set [3], 250 nM.

For the molecule `COc1cc(-c2ncoc2-c2ccc(OC)c3c2ncn3CC#N)cc(OC)c1OC`, the IC50 in [1] worked out at 190 nM; in [2], 89 nM; in data set [3] it was 77 nM; in [4], 2190 nM; in data set [5] it was 2600 nM.

Values taken from ChEMBL document CHEMBL2424644, “Synthesis and antiproliferative evaluation of novel benzoimidazole-contained oxazole-bridged analogs of combretastatin A-4” (Eur J Med Chem, 2013).
